# Measurements published in US8258140B2 (Astrazeneca AB, priority 2009, dated 2012).
# Molecular target: T1, isolated rat AR-LBD (Rattus norvegicus, UniProt P15207)
# T1 construct: purchased Invitrogen PV4293
# T1 sequence (P15207 651-882 limits assumed): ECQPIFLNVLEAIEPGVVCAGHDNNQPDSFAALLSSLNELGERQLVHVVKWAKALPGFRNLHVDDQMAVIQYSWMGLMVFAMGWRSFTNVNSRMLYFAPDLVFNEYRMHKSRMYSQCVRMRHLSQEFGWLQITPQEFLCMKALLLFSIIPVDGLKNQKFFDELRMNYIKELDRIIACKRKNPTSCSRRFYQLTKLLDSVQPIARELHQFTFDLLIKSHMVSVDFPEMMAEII
# Assay: Androgen Receptor Ligand Binding Domain Competitive Binding Assay (fluorescence polarisation, PolarScreen)
# Details: FP, 12 nM AR-LBD, 2 nM fluormone, 4-6 hours at room temperature, 50% reduction in tracer binding; read-out: Androgen Receptor Ligand Binding Domain Competitive Binding Assay (b) IC50/μM
# Protocol: The ability of compounds to bind to isolated Androgen Receptor Ligand binding domain (AR-LBD) was assessed in competition assays using a Fluorescence Polarisation (FP) detection end-point.
# For the FP test, an assay test kit was purchased from Invitrogen and used to measure compound binding to the isolated rat AR-LBD which shares 100% sequence identity to the human AR-LBD. The Invitrogen PolarScreen™ Androgen Receptor Competitor Assay Red (Product Code No. PV4293), is a fluorescence polarisation (FP)—based competition assay which measures if test compound can displace a fluorescently-labelled tracer compound. If the test compound binds to the AR-LBD it will prevent the formation of the receptor/tracer complex, which will result in a low polarisation value.
# The assay was performed as follows with all reagent additions carried out using the Thermo Scientific Matrix PlateMate: • 1. Acoustic dispense 120 nl of the test compound into a black low volume 384 well assay plates. • 2. Volumes of reagents are added to give the following final concentrations of assay components:—0.5 mM DTT, 2 nM fluormone, 12 nM AR-LBD in the Invitrogen Assay Buffer • 3. Dispense 15 μl of the assay mix into each well of the assay plate • 4. Cover the assay plate to protect the reagents from light and evaporation, and incubate at room temperature for 4-6 hours. • 5. Excite at […] and measure the fluorescent emission signal of each well at 590 nm in FP mode using the BMG PheraSTAR or other suitable plate reader.
# Compounds were dosed directly from a compound source microplate containing serially diluted compound (4 wells containing 10 mM, 0.1 mM, 1 μM and 10 nM final compound respectively) to an assay microplate using an Labcyte Echo 550. The Echo 550 is a liquid handler that uses acoustic technology to perform direct microplate-to-microplate transfers of DMSO compound solutions and the system can be programmed to transfer multiple small nL volumes of compound from the different source plate wells to give the desired serial dilution of compound in the assay which is then back-filled to normalise the DMSO concentration across the dilution range. In total 120 nL of compound plus DMSO was added to each well and compounds tested in a 12-point concentration response format over a final compound concentration range of 100, 30, 10, 3, 1, 0.3, 0.1, 0.03, 0.01, 0.003, 0.001, 0.0001 μM, respectively.
# FP dose response data obtained with each compound was exported into a suitable software package (such as Origin) to perform curve fitting analysis. Competitive AR binding may be expressed as an IC50 value. This is determined by calculation of the concentration of compound that is required to give a 50% reduction in tracer compound binding to AR-LBD.
row,IC50 [µM],Structure (SMILES)
1,30.3,"CC(=O)N1CCN(CCOc2ccc(C3CCN(C4=Nn5c(nnc5C(F)(F)F)CC4)CC3)cc2)C[C@H]1C [Example 51, 6-[4-(4-{2-[(3R)-4-acetyl-3-methylpiperazin-1-yl]ethoxy}phenyl)piperidin-1-yl]-3-(trifluoromethyl)-7,8-dihydro[1,2,4]triazolo[4,3-b]pyridazine]"
2,61.9,"CN1CCN(CCOc2ccc(C3CCN(C4=Nn5c(nnc5C(F)(F)F)CC4)CC3)cc2)CC1=O [Example 37, 1-methyl-4-[2-(4-{1-[3-(trifluoromethyl)-7,8-dihydro[1,2,4]triazolo[4,3-b]pyridazin-6-yl]piperidin-4-yl}phenoxy)ethyl]piperazin-2-one]"
3,23.8,"CC(=O)N1CCN(CCCOc2ccc(C3CCN(C4=Nn5c(nnc5C(F)(F)F)CC4)CC3)cc2)CC1 [Example 4.1, 6-[4-[4-[3-(4-acetylpiperazin-1-yl)propoxy]phenyl]piperidin-1-yl]-3-(trifluoromethyl)-7,8-dihydro[1,2,4]triazolo[4,3-b]pyridazine]"
4,22.9,"CC(=O)N1CCN(CCOc2ccc(C3CCN(C4=Nn5c(nnc5C(F)(F)F)CC4)CC3)cc2)CC1 [Example 5.1, 6-(4-{4-[2-(4-acetylpiperazin-1-yl)ethoxy]phenyl}piperidin-1-yl)-3-(trifluoromethyl)-7,8-dihydro[1,2,4]triazolo[4,3-b]pyridazine]"
